Consider two compounds from patent US5202243A, “Method of hydroxylating 3-[2-(benzoxazol-2-yl)ethyl]-5-ethyl-6-methyl-2-(1H)-pyridinone by incubation with liver slices” (Merck & Co., Inc., priority 1992, dated 1993).

For data set [1], the target named is T1, recombinant HIV reverse transcriptase (HIV RTR) (Human immunodeficiency virus type 1 group M subtype B, UniProt P04585).
T1 construct: recombinant HIV reverse transcriptase (HIV RTR)
Put plainly: Reverse transcriptase assay (incorporation of tritiated dGMP into acid-precipitable cDNA). The data set is classed as biochemical. The conditions noted are these: [dGTP] and poly r(C).oligo d(G)12-18 at approx. Km; 37° C., 45 minutes; read-out: calculated IC50. The protocol:
The assay measures the incorporation of tritiated deoxyguanosine monophosphate by recombinant HIV reverse transcriptase (HIV RTR) (or other RT) into acid-precipitable cDNA at the Km values of dGTP and poly r(C).oligo d(G)12-18.
Thirty uL of a reaction mixture containing equal volumes of: 500 mM Tris.HCl (pH 8.2), 300 mM MgCl2, 1200 mM KCl, 10 mM DTT, 400 μg/mL poly r(c).oligo d(G) [prepared by dissolving 1.5 mg (25 U) poly r(C).oligo d(G) in 1.5 ml sterile distilled H2 O and diluting to 400 μg/ml], 0.1 μCi/μl [^3 H] dGTP, 160 μM dGTP, were added to 10 μl sterile distilled H2 O, and 2.5 μl of potential inhibitor. An aliquot of 10 μL of 5 nM purified HIV RTR was added to initiate the reaction. The mixture was incubated at 37° C. for 45 minutes.
After incubation is complete, the tubes were cooled in ice for 5 minutes. Ice-cold 13% TCA containing 10 mM NaPPi (200 μl) are added and the mixture incubated on ice for 30 minutes. The precipitated cDNA is removed by filtration using presoaked glass filters [TCA, NaPPi ]. The precipitate is then washed with 1N HCl, 10 mM NaPPi.
The filter discs are then counted in a scintillation counter.
Under these conditions [dGTP] and poly r(C).oligo d(G)12-18 each are approximately equal to the appropriate Km value. Approximately 5-6,000 cpm of [^3 H] GMP are incorporated into acid-precipitable material. The RT reaction is concentration- and time-dependent.

Data set [2] in a line: Incubation with rat liver slices (metabolism). The data set is classed as in vitro ADME. The following applies: four hours. An excerpt: Ethyl acetate extraction gave a recovery of ~70% of the tritiated material, while ~25% (~9 HPLC peaks) remained in the aqueous residue.

As to `CCc1cc(CCc2nc3ccccc3o2)c(=O)[nH]c1CO` [compound (I), 3-[2-(benzoxazol-2-yl)ethyl]-5-ethyl-6-hydroxymethyl-2 (1H)-pyridinone], the IC50 in data set [1] is around 44 nM. Besides, the “radioactive HPLC peak, % of the total metabolites” value in data set [2] (ethyl acetate extract of the rat liver slice incubation of the parent compound) is 6%.

In the case of `CCc1cc(CCc2nc3ccccc3o2)c(O)nc1C` [compound (II), 3-[2-(Benzoxazol-2-yl)ethyl]-5-ethyl-6-methyl-2-(1H)-pyridinone], in data set [2] (tritiated compound 14.18 μmol, rat liver slices 6.1 g, Williams Medium E, pH 7.4, 37° C.), the metabolised at 4 h was around 32%.
